# Test results from patent US6703420B1, “Amino-thio-acrylonitriles as MEK inhibitors” (Bristol-Myers Squibb Pharma Company, priority 1999, dated 2004).
# Read-outs that look alike come from different tables or passages of the source.
# Legend:
# ERK [1] = details: fMLP- and LTB4-stimulated
# neutrophils [2] = details: U0126 at 10 mM; in response to IL-8 and LTB4
# keratinocytes = keratinocytes stimulated with a variety of agents
# activated MEK = details: cited from earlier work; for type of inhibition, comparative kinetic analysis: activated MEK
# SMC = details: serum starved SMC
# ERK [3] = details: PMA/ionomycin, Con A stimulation, antigen with costimulation; cited from earlier work
# b2 integrin = details: U0126 at 10 mM
# keratinocyte = details: pituitary growth factor extract, primarily FGF
# RAS-transformed cells [4] = tested on: RAS-transformed cells
# MMP = details: IL-1b and TNF-a, fibroblasts; cited from earlier work
# [5] = tested on: freshly isolated human monocytes and THP-1 cells
# Cox-2 [6] = tested on: Cox-2
# neutrophils [7] = tested on: neutrophils
# T cell = details: in response to TCR engagement; cited from earlier work
# monocytes = details: LPS treatment of monocytes; cited from earlier work
# [8] = tested on: neutrophils, mast cells, or endothelial cells; details: opsonized zymosan, aggregation of high affinity IgG receptor, or thrombin, respectively; cited from earlier work
# Cox-2 [9] = details: LPA-stimulated rat mesangial cells; cited from earlier work
# UM-SCC-1 and MDA-TV-138 = details: controlled by EGF, TGFa and FGF; cited from earlier work
# HL-60 cells = details: cited from earlier work
# RAS-transformed cells [10] = details: cited from earlier work
# UM-SCC-1 cells = details: cited from earlier work
# ERK [11] = details: agonists fMLP, IL-8, C5a and LTB4; cited from earlier work
# Swiss 3T3 cells = details: PDGF-stimulated Swiss 3T3 cells; cited from earlier work
# SMC (Smooth Muscle Cell) = details: at concentrations which inhibit ERK activation; cited from earlier work
# 5-lipoxygenase = details: HL-60 cells; cited from earlier work
# neutrophils [12] = details: cited from earlier work
# neutrophils [13] = details: in response to all agents (fMLP, IL-8, C5a, LTB4); cited from earlier work
# Cox-2 [14] = details: RAW 264.7 cells; cited from earlier work
# T cells = details: cited from earlier work
structure (smiles),measurement,setting,value
N#CC(=C(N)Sc1ccc(N)cc1)c1cccc(C(O)c2ccncc2)c1 (centres unmarked),melting point,,146.5 to 147.5 °C
Cc1ccccc1C(C(C#N)=C(N)Sc1ccccc1N)c1ccc(Cl)cc1 (centres unmarked),melting point,,63.5 to 72 °C
N#CC(=C(/N)Sc1ccccc1N)/C(C#N)=C(\N)Sc1ccccc1N [Example U0126],ERK activation in neutrophils,ERK [1],blocks ERK activation
same,block of chemotaxis through a fibrin gel,neutrophils [2],> 80%
same,arachidonic acid release,keratinocytes,block arachidonic acid release
same,prostaglandin and leukotriene synthesis,keratinocytes,block
same,growth of human tumor cell lines in soft agar,human tumor cell lines,"can prevent cell growth in some cells, but not all"
same,"type of inhibition, comparative kinetic analysis",activated MEK,non-competitive inhibitors of activated MEK
same,PDGF-dependent growth,SMC,prevents PDGF-dependent growth
same,ERK activation in T cells,ERK [3],prevents ERK activation
same,blunting of up regulation of b2 integrin on the cell surface,b2 integrin,50%
same,keratinocyte proliferation,keratinocyte,blocks keratinocyte proliferation
same,cell growth under normal culture conditions,RAS-transformed cells [4]; normal culture conditions,minimal effects on cell growth
same,growth of RAS-transformed cells in soft agar,RAS-transformed cells [4]; soft agar,impede the growth
same,MMP induction,MMP,block MMP induction
same,LPS-induced cytokine production,[5],inhibitable
same,Cox-2 induction,Cox-2 [6]; TPA-stimulated fibroblasts,inhibits Cox-2 induction
same,serum induction of the Cox-2 transcript,"Cox-2 [6]; fibroblasts, serum",does not impede serum induction of the Cox-2 transcript
same,NADPH-oxidase activity,neutrophils [7],does not impair NADPH-oxidase activity
same,bacterial cell killing,neutrophils [7],does not impair
same,IL-2 synthesis,T cell,blocked
same,T cell activation and proliferation,T cell,blocked
COc1cccc(-c2cc(=O)c3ccccc3o2)c1N [PD 098059],cytokine production,monocytes,blocked
same,arachidonic acid release,[8],blocks arachidonic acid release
same,Cox-2 induction,Cox-2 [9],inhibits Cox-2 induction
same,urokinase secretion,UM-SCC-1 and MDA-TV-138,reduce urokinase secretion
same,fMLP-stimulated superoxide generation,HL-60 cells,inhibited
same,cell growth under normal culture conditions,RAS-transformed cells [10]; normal culture conditions,minimal effects on cell growth
same,growth of RAS-transformed cells in soft agar,RAS-transformed cells [10]; soft agar,impede the growth
same,"type of inhibition, comparative kinetic analysis",activated MEK,non-competitive inhibitors of activated MEK
same,MEK activity,activated MEK,inhibits MEK activity
same,cellular proliferation rate,UM-SCC-1 cells,not affected
same,in vitro invasiveness through an extracellular matrix-coated porous filter,UM-SCC-1 cells,blocked
same,ERK activation in neutrophils,ERK [11],blocked
same,thymidine incorporation into DNA,Swiss 3T3 cells,blocks thymidine incorporation into DNA
same,PDGF-BB-dependent SMC chemotaxis,SMC (Smooth Muscle Cell),prevents PDGF-BB-dependent SMC (Smooth Muscle Cell) chemotaxis
same,5-lipoxygenase translocation from cytosol to nuclear membrane and activation (5-HETE production),5-lipoxygenase,inhibited
same,superoxide anion production,neutrophils [12],does not alter superoxide anion production
same,neutrophil chemotaxis,neutrophils [13],blocks neutrophil chemotaxis
same,LPS-induced Cox-2 expression,Cox-2 [14],partially blocked
same,IL-2 production,T cells; anti-CD3 antibody with anti-CD28 or PMA,blocked IL-2 production
same,T cell proliferation,"T cells; anti-CD3 antibody, reversed by IL-2",inhibit T cell proliferation
same,"production of IL-4, IL-5 and IL-13",T cells; similarly stimulated T cell cultures,enhanced production
same,"TNFa, IL-3 GM-CSF, IFN-g, IL-6 and IL-10 production",T cells; stimulated T cells,blocked
